Measured values reported in US6858741B2, “Alkyl-dihalogenated phenyl-substituted ketoenols useful as pesticides and herbicides” (Bayer Aktiengesellschaft, priority 1995, dated 2005).

How the values were obtained:
[1] = test system: green rice leafhopper (Nephotettix cincticeps); assay: Nephotettix test; type: in vivo; conditions: after 6 days; active compound concentration 0.1%; dipped rice seedlings
Experimental: (§1) [table] To produce a suitable preparation of active compound, 1 part by weight of active compound is mixed with the stated amount of solvent and the stated amount of emulsifier, and the concentrate is diluted with water to the desired concentration. Rice seedlings (Oryza sativa) are treated by being dipped into the preparation of active compound of the desired concentration and are infested with the green rice leafhopper (Nephotettix cincticeps) while the seedlings are still moist. After the specified period of time, the destruction in % is determined. 100% means that all the leafhoppers have been killed; 0% means that none of the leafhoppers have been killed.

[2] = test system: green peach aphid (Myzus persicae); assay: Myzus test; type: in vivo; conditions: after 6 days; active compound concentration 0.1%; dipped cabbage leaves
Experimental: as §1, with “Cabbage leaves (Brassica oleracea) which are severely infested with the green peach aphid (Myzus persicae)” for “Rice seedlings (Oryza sativa)”, “concentration.” for “concentration and are infested with the green rice leafhopper (Nephotettix cincticeps) while the seedlings are still moist.”, “aphids” for “leafhoppers”

[3] = test system: caterpillars of the diamond-back moth (Plutella maculipennis); assay: Plutella test; type: in vivo; conditions: after 7 days; active compound concentration 0.1%; dipped cabbage leaves
Experimental: (§2) [table] To produce a suitable preparation of active compound, 1 part by weight of active compound is mixed with the stated amount of solvent and the stated amount of emulsifier, and the concentrate is diluted with water to the desired concentration. Cabbage leaves (Brassica oleracea) are treated by being dipped into the preparation of active compound of the desired concentration and are infested with caterpillars of the diamond-back moth (Plutella maculipennis) while the leaves are still moist. After the specified period of time, the destruction in % is determined. 100% means that all the caterpillars have been killed; 0% means that none of the caterpillars have been killed.

[4] = test system: resistant Boophilus microplus, SP resistant Parkhurst strain; assay: Test with resistant Boophilus microplus / SP resistant Parkhurst strain; type: in vivo; conditions: active compound concentration 20 μg/animal; injected into the abdomen
Experimental: [table] 20 mg of active compound are dissolved in 1 ml of dimethyl sulphoxide, and lesser concentrations are prepared by dilution with the same solvent. The test is carried out in 5 applications. 1 μl of the solutions is injected into the abdomen, and the animals are transferred into dishes and kept in a controlled-environment cabinet. The activity is determined via the inhibition of oviposition. 100% means that no tick has produced eggs.

fly larvae = assay: Test with fly larvae/development-inhibitory action; type: in vivo; conditions: active compound concentration 1000 ppm
Experimental: [table] To produce a suitable formulation, 3 parts by weight of active compound are mixed with 7 parts of the abovementioned solvent/emulsifier mixture, and the resulting emulsion concentrate is diluted with water to the concentration desired in each case. For each concentration, 30 to 50 larvae are transferred to horsemeat (1 cm^3) located in glass tubes and 500 μl of the test dilution are pipetted onto the meat. The glass tubes are placed into plastic beakers whose bottom is covered with sea sand and kept in a control-environment cabinet (26° C.±1.5° C., 70% relative humidity±10%). The activity is checked after 24 hours and 48 hours (larvicidal action). After the larvae have left the glass tubes (approximately 72 hours), the tubes are removed, and perforated plastic lids are placed on the beakers. After 1½ times the development period (hatching of the control flies), the hatched flies and the pupae/puparia are counted. The criterion for the action is death in the treated larvae after 48 hours (larvicidal effect) or inhibition of adults hatching from the pupae or inhibition of pupation. The criterion for the in-vitro action of a substance is the inhibition of fly development or a standstill of development prior to the adult stage. 100% larvicidal activity means that all larvae have died after 48 hours. 100% development-inhibitory activity means that no adult flies have hatched.

[5] = test system: mustard beetle larvae (Phaedon cochleariae); assay: Phaedon larvae test; type: in vivo; conditions: after 7 days; active compound concentration 0.1%; dipped cabbage leaves
Experimental: [table] To produce a suitable preparation of active compound, 1 part by weight of active compound is mixed with the stated amount of solvent and the stated amount of emulsifier, and the concentrate is diluted with water to the desired concentration. Cabbage leaves (Brassica oleracea) are treated by being dipped into the preparation of the active compound of the desired concentration and are infested with mustard beetle larvae (Phaedon cochleariae) while the leaves are still moist. After the specified period of time, the destruction in % is determined. 100% means that all the beetle larvae have been killed; 0% means that none of the beetle larvae have been killed.

[6] = test system: greenhouse red spider mite or two-spotted spider-mite (Tetranychus urticae); assay: Tetranychus test (OP-resistant/spray treatment); type: in vivo; conditions: after 7 days; active compound concentration 0.004%; spray treatment of bean plants
Experimental: (§3) [table] To produce a suitable preparation of active compound, 1 part by weight of active compound is mixed with the stated amount of solvent and the stated amount of emulsifier, and the concentrate is diluted with water to the desired concentrations. Bean plants (Phaseolus vulgaris) which are severely infested with all development stages of the greenhouse red spider mite or two-spotted spider-mite (Tetranychus urticae) are sprayed with a preparation of active compound of the desired concentration. After the specified period of time, the destruction in % is determined. 100% means that all the spider mites have been killed; 0% means that none of the spider mites have been killed.

[7] = test system: greenhouse red spider mite or two-spotted spider-mite (Tetranychus urticae); assay: Tetranychus test (OP-resistant/immersion treatment); type: in vivo; conditions: after 13 days; active compound concentration 0.1%; immersion treatment of bean plants
Experimental: as §3, with “immersed in” for “sprayed with”

test plants [8] = assay: Pre-emergence test/greenhouse; type: in vivo; conditions: greenhouse, 250 g/ha, rated after three weeks vs untreated control, 0%=no action, 100%=total destruction
Experimental: [table] To produce a suitable preparation of active compound, 1 part by weight of active compound is mixed with the stated amount of solvent, the stated amount of emulsifier is added and the concentrate is diluted with water to the desired concentration. Seeds of the test plants are sown in normal soil and, after 24 hours, watered with the preparation of the active compound. It is expedient to keep constant the amount of water per unit area The concentration of the active compound in the preparation is of no importance, only the amount of active compound applied per unit area being decisive. After three weeks, the degree of damage to the plants is rated in % damage in comparison to the development of the untreated control. The figures denote: • 0%=no action (like untreated control) 100%=total destruction [table]

[9] = test system: caterpillars of the fall armyworm (Spodoptera frugiperda); assay: Spodoptera test; type: in vivo; conditions: after 7 days; active compound concentration 0.1%; dipped cabbage leaves
Experimental: as §2, with “fall armyworm (Spodoptera frugiperda)” for “diamond-back moth (Plutella maculipennis)”

test plants [10] = assay: Post-emergence test; type: in vivo; conditions: post-emergence (footnote *); 250 g/ha; rated after three weeks vs untreated control; 0%=no action, 100%=total destruction

Cc1cc(Cl)cc(Cl)c1C1=C(O)C(C)(C(C)C)NC1=O (centres unmarked) [Example I-1-a-1]
destruction [1]: 100% | destruction [2]: 100% | destruction [3]: 100%

Cc1cc(Cl)cc(Cl)c1C1=C(O)C2(CCOCC2)NC1=O [Example I-1-a-5]
activity (inhibition of oviposition) [4]: 100% | activity (larvicidal / development-inhibitory) (fly larvae): 100%

Cc1cc(Cl)c(C2=C(O)C3(CCC(C)CC3)OC2=O)c(Cl)c1 (centres unmarked) [Example I-2-a-6]
activity (inhibition of oviposition) [4]: 100% | destruction [2]: 100% | activity (larvicidal / development-inhibitory) (fly larvae): 100% | destruction [5]: 100%

Cc1cc(Cl)cc(Cl)c1C1=C(OC(=O)C(C)C)C2(CCCC(C)C2)NC1=O (single isomer, unassigned) [Example I-1-b-3]
activity (inhibition of oviposition) [4]: 100% | activity (larvicidal / development-inhibitory) (fly larvae): 100%

Cc1cc(Cl)cc(Cl)c1C1=C(OC(=O)C(C)(C)C)C2(CCCCC2)OC1=O [Example I-2-b-1, 4-pivaloyl-oxy-3-(2,4-dichloro-6-methyl-phenyl)-5-spiro-cyclohexyl-tetronic acid]
activity (destruction) [6]: 100% | melting point: 137 °C

CC(=O)OC1=C(c2c(C)cc(Cl)cc2Cl)C(=O)NC12CCCCC2 [Example I-1-b-7]
activity (destruction) [7]: 100% | destruction [2]: 100% | degree of damage, Alopecurus myosuroides (test plants [8]): 95% | degree of damage, Avena fatua (test plants [8]): 80% | degree of damage, Beta vulgaris (test plants [8]): 30% | degree of damage, Setaria viridis (test plants [8]): 100% | degree of damage, Sinapis arvensis (test plants [8]): 100% | destruction [5]: 100%

Cc1cc(Cl)c(C2=C(OC(=O)C(C)(C)C)C3(CCCCC3)SC2=O)c(Cl)c1 [Example I-3-b-1]
activity (destruction) [7]: 100% | destruction [1]: 100% | destruction [3]: 100%

Cc1cc(Cl)c(C2=C(O)C3(CCC(C)CC3)NC2=O)c(Cl)c1 (single isomer, unassigned) [Example I-1-a-7]
activity (destruction) [7]: 100% | destruction [1]: 100% | degree of damage, Alopecurus myosuroides (test plants [8]): 100% | degree of damage, Avena fatua (test plants [8]): 90% | degree of damage, Setaria viridis (test plants [8]): 100% | degree of damage, Sinapis arvensis (test plants [8]): 100% | destruction [3]: 100%

Cc1cc(Cl)c(C2=C(O)C3(CCCCC3)OC2=O)c(Cl)c1 [Example I-2-a-5]
destruction [2]: 100%

Cc1cc(Cl)cc(Cl)c1C1=C(OC(=O)c2ccccc2)C2(CCCC(C)C2)NC1=O (single isomer, unassigned) [Example I-1-b-5]
destruction [9]: 100%

Cc1cc(Cl)cc(Cl)c1C1=C(O)C2(CCCCC2)OC1=O [Example I-2-a-1, 3-(2,4-dichloro-6-methyl-phenyl)-5-spirocyclohexyltetronic acid]
melting point: > 240 °C

Cc1cc(Cl)cc(Cl)c1-c1c(O)c(C)c(-c2ccccn2)oc1=O [Example I-5-a-1]
degree of damage, Alopecurus myosuroides (test plants [8]): 80% | degree of damage, Beta vulgaris (test plants [8]): 0% | degree of damage, Alopecurus myosuroides (test plants [10]): 80% | degree of damage, Beta vulgaris (test plants [10]): 0%
